Among the data in the NIST ThermoML archive (doi:10.1016/j.jct.2010.04.022) are mass density and refractive index values, retold here.

± gives the expanded uncertainty stated by the source.

A short description of data set [1]: xn = mol fraction of the nth substance listed. The note with it: 101 kPa, Liquid, Vibrating tube method.
For data set [2] the following is noted: 298.15 K; 101.33 kPa; Liquid; Vibrating tube method.
Data set [3] can be described thus: refractive index (Na D-line) (dimensionless). The conditions noted are these: 298.15 K; 101.33 kPa; Liquid; Standard Abbe refractometry.

For the molecule `CCOS(=O)(=O)[O-].CC[n+]1ccccc1` [1-ethylpyridinium ethyl sulfate] + CCCCCCC, the mass density is given as 1260.51 ± 0.99 kg/m3 in data set [1] (283.15 K, x2 = 0.007) and 1250.63 ± 0.98 kg/m3 in data set [1] (298.15 K, x2 = 0.007).
With `CCOS(=O)(=O)[O-].CC[n+]1ccccc1` [1-ethylpyridinium ethyl sulfate] + c1ccccc1, the mass density in data set [1] (283.15 K, x2 = 0.335) is 1198.57 ± 1.7 kg/m3; in data set [1] (298.15 K, x2 = 0.406) it was 1171.69 ± 1.7 kg/m3.
As for `CCOS(=O)(=O)[O-].CC[n+]1ccccc1` [1-ethylpyridinium ethyl sulfate] + CCCCCC, the mass density in data set [1] (283.15 K, x2 = 0.007) was 1259.82 ± 0.99 kg/m3; in data set [1] (298.15 K, x2 = 0.008) it was 1249.78 ± 1.1 kg/m3.
For `CCOS(=O)(=O)[O-].CC[n+]1ccccc1` [1-ethylpyridinium ethyl sulfate], the mass density in data set [2] was determined as 1252 ± 0.4 kg/m3. In data set [3], the refractive index turned out to be 1.50525 ± 0.00037.

By mass density is commonly meant the mass of a sample divided by its volume. As a reminder, the refractive index is a measure of how strongly the sample bends light.
